Patent publication US8697667B2, “Cyclodextrin-modified polyamines for delivery of therapeutic molecules” (Rutgers, The State University of New Jersey, priority 2010, dated 2014)
Like-named read-outs stand apart in the source and are kept apart here.

How the values were obtained:
Aqueous solubility = format: physicochemical
glioblastoma cells = assay: Annexin-V/Propidium Iodide apoptosis assay; format: cell-based; conditions: combined with siRNA against EGFRvIII (200 nM), polymer 100 μM; SAHA 5 μM, erlotinib 30 μM; versus individual treatments
Text: Cells were harvested by trypsinization and stained using an Annexin V FITC Apoptosis Detection kit (Roche, Cambridge, Mass.) according to the manufacturer's protocol. The stained cells were immediately analyzed by flow cytometry (FACScan; Becton Dickinson, Franklin Lake, N.J.). Early apoptotic cells with exposed phosphatidylserine but intact cell membranes bound to Annexin V-FITC but excluded propidium iodide. Cells in necrotic or late apoptotic stages were labeled with both Annexin V-FITC and propidium iodide.

OC[C@H]1O[C@@H]2O[C@H]3[C@H](O)[C@@H](O)[C@@H](O[C@H]4[C@H](O)[C@@H](O)[C@@H](O[C@H]5[C@H](O)[C@@H](O)[C@@H](O[C@H]6[C@H](O)[C@@H](O)[C@@H](O[C@H]7[C@H](O)[C@@H](O)[C@@H](O[C@H]8[C@H](O)[C@@H](O)[C@@H](O[C@H]1[C@H](O)[C@H]2O)O[C@@H]8CO)O[C@@H]7CO)O[C@@H]6CO)O[C@@H]5CO)O[C@@H]4CO)O[C@@H]3CO [CD, β-cyclodextrin]
aqueous solubility (Aqueous solubility): < 1.8 g/100 mL

C#Cc1cccc(Nc2ncnc3cc(OCCOC)c(OCCOC)cc23)c1 [erlotinib, N-(3-ethynylphenyl)-6,7-bis(2-methoxyethoxy)quinazolin-4-amine]
aqueous solubility (Aqueous solubility; drug loaded into / complexed with β-CD cavity): 178 mg/100 mL | induction of apoptosis (Annexin-V-FITC-positive cells) (glioblastoma cells): cooperative induction of apoptosis

O=C(CCCCCCC(=O)Nc1ccccc1)NO [SAHA, suberoylanilide hydroxamic acid]
induction of apoptosis (Annexin-V-FITC-positive cells) (glioblastoma cells): greater induction of apoptosis
